Experimental data from the NIST ThermoML archive (doi:10.1016/j.tca.2008.12.029).
Numbers after ± are expanded uncertainties.

Experiment: molar heat capacity at constant pressure
Conditions: 101.33 kPa, Crystal, Vacuum adiabatic calorimetry

O=C([O-])c1ccccc1.[Na+] [sodium benzoate]
Conditions | molar heat capacity at constant pressure [J/K/mol]
78.86 K | 74.66 ± 0.47
80.43 K | 75.06 ± 0.47
82.62 K | 76.58 ± 0.48
84.79 K | 77.94 ± 0.49
87.06 K | 79 ± 0.49
89.08 K | 80.34 ± 0.5
91.16 K | 81.6 ± 0.53
93.24 K | 82.94 ± 0.54
95.32 K | 83.73 ± 0.54
97.26 K | 84.83 ± 0.55
99.2 K | 86.09 ± 0.56
101.14 K | 87.27 ± 0.56
103.01 K | 88.2 ± 0.57
104.89 K | 89.11 ± 0.57
106.3 K | 89.81 ± 0.58
107.72 K | 90.52 ± 0.58
109.44 K | 91.63 ± 0.59
111.32 K | 92.54 ± 0.59
113.05 K | 93.55 ± 0.6
114.93 K | 94.67 ± 0.6
116.5 K | 95.37 ± 0.61
118.38 K | 95.98 ± 0.61
120.05 K | 97.43 ± 0.62
122.61 K | 98.9 ± 0.63
126.31 K | 100.57 ± 0.64
129.87 K | 102.54 ± 0.65
133.42 K | 104.11 ± 0.66
137.05 K | 105.58 ± 0.67
140.25 K | 107.64 ± 0.68
143.52 K | 109.31 ± 0.69
146.93 K | 111.38 ± 0.7
150.2 K | 112.85 ± 0.71
153.61 K | 114.42 ± 0.72
156.74 K | 115.8 ± 0.73
159.94 K | 117.1 ± 0.74
163.08 K | 118.62 ± 0.75
166.41 K | 120.71 ± 0.76
169.54 K | 122.29 ± 0.77
172.67 K | 124.15 ± 0.78
175.8 K | 125.53 ± 0.79
178.78 K | 127.2 ± 0.8
182.05 K | 128.48 ± 0.81
186.18 K | 130.74 ± 0.82
190.73 K | 133.09 ± 0.83
194.71 K | 134.96 ± 0.84
198.69 K | 136.73 ± 0.85
202.67 K | 138.89 ± 0.87
206.65 K | 140.95 ± 0.88
210.78 K | 143.02 ± 0.89
214.62 K | 144.69 ± 0.9
218.6 K | 147.24 ± 0.92
222.72 K | 148.91 ± 0.93
226.56 K | 150.78 ± 0.94
230.54 K | 152.55 ± 0.95
234.67 K | 154.3 ± 0.96
238.65 K | 156.48 ± 0.97
242.63 K | 158.35 ± 0.98
247.75 K | 160.9 ± 1
252.79 K | 162.99 ± 1
256.71 K | 164.6 ± 1
260.69 K | 166.7 ± 1
264.71 K | 168.34 ± 1
268.8 K | 170.63 ± 1.1
272.92 K | 172.89 ± 1.1
276.9 K | 174.76 ± 1.1
280.74 K | 176.43 ± 1.1
284.72 K | 178.39 ± 1.1
288.7 K | 179.87 ± 1.1
292.69 K | 181.54 ± 1.1
295.1 K | 182.91 ± 1.1
298.37 K | 184.58 ± 1.1
301.36 K | 185.56 ± 1.1
304.35 K | 186.94 ± 1.1
307.33 K | 188.32 ± 1.2
310.32 K | 189.49 ± 1.2
313.3 K | 190.87 ± 1.2
316.29 K | 191.75 ± 1.2
319.28 K | 192.93 ± 1.2
322.12 K | 194.21 ± 1.2
325.11 K | 195.49 ± 1.2
327.81 K | 196.77 ± 1.2
329.51 K | 197.36 ± 1.2
332.93 K | 198.63 ± 1.2
335.35 K | 199.91 ± 1.2
338.05 K | 200.79 ± 1.2
340.89 K | 202.17 ± 1.2
343.88 K | 202.96 ± 1.2
346.72 K | 204.33 ± 1.3
349.42 K | 205.02 ± 1.3
352.27 K | 206.2 ± 1.3
355.25 K | 207.28 ± 1.3
358.1 K | 208.56 ± 1.3
360.85 K | 209.38 ± 1.3
363.79 K | 210.82 ± 1.3
366.63 K | 212.19 ± 1.3
369.62 K | 213.57 ± 1.3
372.46 K | 214.53 ± 1.3
375.3 K | 215.93 ± 1.3
378.15 K | 217.2 ± 1.3
380.99 K | 218.09 ± 1.3
383.98 K | 219.66 ± 1.4
386.68 K | 220.45 ± 1.4
389.52 K | 221.82 ± 1.4
392.37 K | 223.2 ± 1.4
395.21 K | 224.18 ± 1.4
397.91 K | 225.75 ± 1.4
